According to ChEMBL document CHEMBL3045544, “Synthesis, antimicrobial and antioxidant activities of some new indole derivatives containing pyridopyrimidine and pyrazolopyridine moieties” (Med Chem Res, 2013):

What was measured:
[1] = Metal chelating activity of the compound assessed as inhibition of ferrozine Fe2+ complex formation at 25 to 100 ug/ml after 10 min by spectrophotometric analysis; assay type: physicochemical
Aspergillus niger = assay: Antimicrobial activity against Aspergillus niger MTCC 281 assessed as diameter of growth inhibition zone at 500 ug/ml after 72 hr by cup-plate method; assay type: functional; settings: MTCC 281, 72 h, read-out: DIZ
Aspergillus flavus = assay: Antimicrobial activity against Aspergillus flavus MTCC 1973 assessed as diameter of growth inhibition zone at 500 ug/ml after 72 hr by cup-plate method; assay type: functional; settings: MTCC 1973, 72 h, read-out: DIZ
Aspergillus terreus = assay: Antimicrobial activity against Aspergillus terreus MTCC 1782 assessed as diameter of growth inhibition zone at 500 ug/ml after 72 hr by cup-plate method; assay type: functional; settings: MTCC 1782, 72 h, read-out: DIZ
Pseudomonas aeruginosa = assay: Antimicrobial activity against Pseudomonas aeruginosa MTCC 1688 assessed as diameter of growth inhibition zone at 500 ug/ml after 24 hr by cup-plate method; assay type: functional; settings: MTCC 1688, 24 h, read-out: DIZ
Staphylococcus aureus = assay: Antimicrobial activity against Staphylococcus aureus ATCC 29513 assessed as diameter of growth inhibition zone at 500 ug/ml after 24 hr by cup-plate method; assay type: functional; settings: ATCC 29513, 24 h, read-out: DIZ
Klebsiella pneumoniae = assay: Antimicrobial activity against Klebsiella pneumoniae NCTC 13368 assessed as diameter of growth inhibition zone at 500 ug/ml after 24 hr by cup-plate method; assay type: functional; settings: NCTC 13368, 24 h, read-out: DIZ
Escherichia coli = assay: Antimicrobial activity against Escherichia coli MTCC 723 assessed as diameter of growth inhibition zone at 500 ug/ml after 24 hr by cup-plate method; assay type: functional; settings: MTCC 723, 24 h, read-out: DIZ
Aspergillus oryzae = assay: Antimicrobial activity against Aspergillus oryzae MTCC 3567 assessed as diameter of growth inhibition zone at 500 ug/ml after 72 hr by cup-plate method; assay type: functional; settings: MTCC 3567, 72 h, read-out: DIZ
[2] = system: Radical scavenging activity; assay: Antioxidant activity assessed as DPPH radical scavenging activity at 75 ug/ml by spectrophotometric analysis; assay type: functional
[3] = system: Radical scavenging activity; assay: Antioxidant activity assessed as DPPH radical scavenging activity at 50 ug/ml by spectrophotometric analysis; assay type: functional

SMILES	inhibition (INH) [1]	zone of inhibition at 500 µg/mL (Aspergillus niger)	zone of inhibition at 500 µg/mL (Aspergillus flavus)	zone of inhibition at 500 µg/mL (Aspergillus terreus)	zone of inhibition at 500 µg/mL (Pseudomonas aeruginosa)	zone of inhibition at 500 µg/mL (Staphylococcus aureus)	zone of inhibition at 500 µg/mL (Klebsiella pneumoniae)	zone of inhibition at 500 µg/mL (Escherichia coli)	zone of inhibition at 500 µg/mL (Aspergillus oryzae)	Activity [2]	Activity [3]
O=c1[nH]cnc2nc(-c3ccccc3)cc(-c3c(-c4ccccc4)[nH]c4ccccc34)c12	Active	8 mm	11 mm	8 mm	10 mm	2 mm	10 mm	10 mm	10 mm		
Cc1ccc(-c2cc(-c3c(-c4ccccc4)[nH]c4ccc(C)cc34)c3c(N)ncnc3n2)cc1		10 mm	5 mm	5 mm	5 mm	10 mm	6 mm	5 mm	8 mm		
OC(Cn1cncn1)(Cn1cncn1)c1ccc(F)cc1F [FLUCONAZOLE]		14 mm	14 mm	14 mm					14 mm		
Cc1ccc2[nH]c(-c3ccccc3)c(-c3cc(-c4ccccc4)nc4nc[nH]c(=O)c34)c2c1		9 mm	10 mm	10 mm	10 mm	6 mm	9 mm	5 mm	8 mm		
Cc1ccc(-c2cc(-c3c(-c4ccccc4)[nH]c4ccc(Cl)cc34)c3c(N)ncnc3n2)cc1		8 mm	10 mm	4 mm	9 mm	10 mm	9 mm	9 mm	5 mm		
Cc1ccc2[nH]c(-c3ccccc3)c(-c3cc(-c4ccccc4)nc4ncnc(N)c34)c2c1		8 mm	11 mm	10 mm	5 mm	10 mm	6 mm	8 mm	6 mm		
Nc1n[nH]c2nc(-c3ccc(Cl)cc3)cc(-c3c(-c4ccccc4)[nH]c4ccc(Cl)cc34)c12		6 mm	8 mm	10 mm	6 mm	10 mm	11 mm	10 mm	10 mm	73.5%	
Nc1ncnc2nc(-c3ccccc3)cc(-c3c(-c4ccccc4)[nH]c4ccc(Cl)cc34)c12		10 mm	8 mm	5 mm	8 mm	10 mm	5 mm	9 mm	10 mm		78%
Nc1n[nH]c2nc(-c3ccccc3)cc(-c3c(-c4ccccc4)[nH]c4ccccc34)c12		10 mm	6 mm	8 mm	11 mm	8 mm	10 mm	10 mm	12 mm		75.5%
Cc1ccc(-c2cc(-c3c(-c4ccccc4)[nH]c4ccccc34)c3c(=O)[nH]cnc3n2)cc1		6 mm	5 mm	10 mm	10 mm	8 mm	11 mm	10 mm	6 mm		
O=c1[nH]cnc2nc(-c3ccc(Cl)cc3)cc(-c3c(-c4ccccc4)[nH]c4ccc(Cl)cc34)c12	Active	10 mm	3 mm	8 mm	13 mm	11 mm	11 mm	11 mm	14 mm		
Cc1ccc(-c2cc(-c3c(-c4ccccc4)[nH]c4ccccc34)c3c(N)ncnc3n2)cc1		10 mm	8 mm	8 mm	10 mm	11 mm	11 mm	10 mm	10 mm		
Cc1ccc(-c2cc(-c3c(-c4ccccc4)[nH]c4ccccc34)c3c(N)n[nH]c3n2)cc1		5 mm	8 mm	2 mm	9 mm	11 mm	9 mm	10 mm	10 mm		
Nc1n[nH]c2nc(-c3ccccc3)cc(-c3c(-c4ccccc4)[nH]c4ccc(Cl)cc34)c12		5 mm	10 mm	14 mm	5 mm	12 mm	13 mm	8 mm	10 mm		
Cc1ccc(-c2cc(-c3c(-c4ccccc4)[nH]c4ccc(C)cc34)c3c(N)n[nH]c3n2)cc1		10 mm	11 mm	9 mm	6 mm	11 mm	5 mm	10 mm	3 mm		
Nc1ncnc2nc(-c3ccc(Cl)cc3)cc(-c3c(-c4ccccc4)[nH]c4ccc(Cl)cc34)c12		8 mm	12 mm	8 mm	11 mm	12 mm	10 mm	11 mm	8 mm		
O=c1[nH]cnc2nc(-c3ccc(Cl)cc3)cc(-c3c(-c4ccccc4)[nH]c4ccccc34)c12		10 mm	11 mm	11 mm	2 mm	10 mm	8 mm	10 mm	10 mm		
Cc1ccc2[nH]c(-c3ccccc3)c(-c3cc(-c4ccc(Cl)cc4)nc4ncnc(N)c34)c2c1		10 mm	11 mm	5 mm	11 mm	8 mm	10 mm	6 mm	8 mm		
Nc1n[nH]c2nc(-c3ccc(Cl)cc3)cc(-c3c(-c4ccccc4)[nH]c4ccccc34)c12	Active	10 mm	11 mm	8 mm	8 mm	14 mm	10 mm	10 mm	10 mm		
CN[C@@H]1[C@H](O[C@H]2[C@H](O[C@H]3[C@H](O)[C@@H](O)[C@H](N=C(N)N)[C@@H](O)[C@@H]3N=C(N)N)O[C@@H](C)[C@]2(O)C=O)O[C@@H](CO)[C@H](O)[C@H]1O [STREPTOMYCIN]					13 mm	13 mm	13 mm	13 mm			
Cc1ccc2[nH]c(-c3ccccc3)c(-c3cc(-c4ccc(Cl)cc4)nc4nc[nH]c(=O)c34)c2c1		11 mm	8 mm	9 mm	8 mm	9 mm	6 mm	8 mm	8 mm		72.7%
Cc1ccc2[nH]c(-c3ccccc3)c(-c3cc(-c4ccc(Cl)cc4)nc4[nH]nc(N)c34)c2c1		10 mm	11 mm	2 mm	8 mm	10 mm	10 mm	7 mm	8 mm		
Nc1ncnc2nc(-c3ccccc3)cc(-c3c(-c4ccccc4)[nH]c4ccccc34)c12		10 mm	10 mm	5 mm	9 mm	10 mm	10 mm	5 mm	9 mm		
